Converted amounts (≈) assume the structure as drawn.

The source of these data is ChEMBL document CHEMBL1138130, “Synthesis and antibacterial activity of 3-O-acyl-6-O-carbamoyl erythromycin A derivatives” (2006).

What all share (format): functional
Assay [1] concerns Streptococcus pneumoniae. Nature of the assay: Antibacterial activity against Streptococcus pneumoniae OC9132.
The subject of the next assay is Haemophilus influenzae. Nature of the assay: Antibacterial activity against Haemophilus influenzae OC4882.
For assay [2], the system named is Streptococcus pneumoniae. Description: Antibacterial activity against Mef(A) efflux pump containing Streptococcus pneumoniae OC4438.
The subject of a further assay is Staphylococcus aureus. Nature of the assay: Antibacterial activity against Staphylococcus aureus OC4172.
Assay [3] concerns Streptococcus pneumoniae. Nature of the assay: Antibacterial activity against erm(B) ribosomal methylase gene containing Streptococcus pneumoniae OC4051.

In the case of `CC[C@H]1OC(=O)[C@H](C)[C@@H](OC(=O)N(CC)CC)[C@H](C)[C@@H](O[C@@H]2O[C@H](C)C[C@H](N(C)C)[C@H]2O)[C@](C)(OC(=O)NC/C=C/c2ccc(-c3ncccn3)cc2)C[C@@H](C)C(=O)[C@H](C)[C@H]2NC(=O)O[C@@]21C`, the MIC in the assay on Streptococcus pneumoniae [1] was 0.06 µg/mL (≈ 0.064 µM); in the assay with Haemophilus influenzae, 8 µg/mL (≈ 8.54 µM); against Streptococcus pneumoniae [2], 0.06 µg/mL (≈ 0.064 µM); in the assay with Staphylococcus aureus it was 0.5 µg/mL (≈ 0.534 µM); with Streptococcus pneumoniae [3], 0.12 µg/mL (≈ 0.128 µM).

With `CC[C@H]1OC(=O)[C@H](C)[C@@H](OC(=O)N2CCCC2)[C@H](C)[C@@H](O[C@@H]2O[C@H](C)C[C@H](N(C)C)[C@H]2O)[C@](C)(OC(=O)NC/C=C/c2ccc(-c3ncccn3)cc2)C[C@@H](C)C(=O)[C@H](C)[C@H]2NC(=O)O[C@@]21C`, the MIC against Streptococcus pneumoniae [1] amounted to 0.06 µg/mL (≈ 0.0642 µM); against Haemophilus influenzae it was 16 µg/mL (≈ 17.1 µM); with Streptococcus pneumoniae [2] it was 0.12 µg/mL (≈ 0.128 µM); with Staphylococcus aureus, 0.5 µg/mL (≈ 0.535 µM); in the assay with Streptococcus pneumoniae [3], 0.25 µg/mL (≈ 0.267 µM).

For `CC[C@H]1OC(=O)[C@H](C)[C@@H](OC(=O)N(CC)Cc2cccnc2)[C@H](C)[C@@H](O[C@@H]2O[C@H](C)C[C@H](N(C)C)[C@H]2O)[C@](C)(OC(=O)NC/C=C/c2ccc(-c3ncccn3)cc2)C[C@@H](C)C(=O)[C@H](C)[C@H]2NC(=O)O[C@@]21C`, the MIC in the assay with Streptococcus pneumoniae [1] is 0.06 µg/mL (≈ 0.06 µM); with Haemophilus influenzae, 16 µg/mL (≈ 16 µM); in the assay on Streptococcus pneumoniae [2], 0.12 µg/mL (≈ 0.12 µM); in the assay with Staphylococcus aureus, 0.5 µg/mL (≈ 0.5 µM); in the assay with Streptococcus pneumoniae [3], 0.25 µg/mL (≈ 0.25 µM).

Turning to `CC[C@H]1OC(=O)[C@H](C)[C@@H](OC(=O)N(C)C)[C@H](C)[C@@H](O[C@@H]2O[C@H](C)C[C@H](N(C)C)[C@H]2O)[C@](C)(OC(=O)NC/C=C/c2ccc(-c3ncccn3)cc2)C[C@@H](C)C(=O)[C@H](C)[C@H]2NC(=O)O[C@@]21C`, the MIC came to 0.03 µg/mL (≈ 0.033 µM) in the assay with Streptococcus pneumoniae [1]; 8 µg/mL (≈ 8.8 µM) in the assay with Haemophilus influenzae; 0.06 µg/mL (≈ 0.066 µM) against Streptococcus pneumoniae [2]; 0.25 µg/mL (≈ 0.275 µM) with Staphylococcus aureus; 0.25 µg/mL (≈ 0.275 µM) in the assay on Streptococcus pneumoniae [3].

With `CC[C@H]1OC(=O)[C@H](C)[C@@H](OC(=O)N(C)c2ccncc2)[C@H](C)[C@@H](O[C@@H]2O[C@H](C)C[C@H](N(C)C)[C@H]2O)[C@](C)(OC(=O)NC/C=C/c2ccc(-c3ncccn3)cc2)C[C@@H](C)C(=O)[C@H](C)[C@H]2NC(=O)O[C@@]21C`, the MIC is 0.06 µg/mL (≈ 0.0617 µM) in the assay with Streptococcus pneumoniae [1]; 8 µg/mL (≈ 8.23 µM) against Haemophilus influenzae; 0.25 µg/mL (≈ 0.257 µM) against Streptococcus pneumoniae [2]; 1 µg/mL (≈ 1.03 µM) with Staphylococcus aureus; 0.25 µg/mL (≈ 0.257 µM) with Streptococcus pneumoniae [3].

For `CC[C@H]1OC(=O)[C@H](C)[C@@H](OC(=O)N(C)Cc2cccnc2)[C@H](C)[C@@H](O[C@@H]2O[C@H](C)C[C@H](N(C)C)[C@H]2O)[C@](C)(OC(=O)NC/C=C/c2ccc(-c3ncccn3)cc2)C[C@@H](C)C(=O)[C@H](C)[C@H]2NC(=O)O[C@@]21C`, the MIC is 0.03 µg/mL (≈ 0.0304 µM) in the assay with Streptococcus pneumoniae [1]; 4 µg/mL (≈ 4.06 µM) against Haemophilus influenzae; 0.06 µg/mL (≈ 0.0608 µM) with Streptococcus pneumoniae [2]; 0.25 µg/mL (≈ 0.254 µM) against Staphylococcus aureus; 0.5 µg/mL (≈ 0.507 µM) with Streptococcus pneumoniae [3].

In the case of `CC[C@H]1OC(=O)[C@H](C)[C@@H](OC(=O)NC2CCCCC2)[C@H](C)[C@@H](O[C@@H]2O[C@H](C)C[C@H](N(C)C)[C@H]2O)[C@](C)(OC(=O)NC/C=C/c2ccc(-c3ncccn3)cc2)C[C@@H](C)C(=O)[C@H](C)[C@H]2NC(=O)O[C@@]21C`, the MIC in the assay on Streptococcus pneumoniae [1] amounted to 0.12 µg/mL (≈ 0.125 µM); against Haemophilus influenzae, 16 µg/mL (≈ 16.6 µM); against Streptococcus pneumoniae [2], 0.25 µg/mL (≈ 0.26 µM); in the assay with Staphylococcus aureus, 1 µg/mL (≈ 1.04 µM); in the assay on Streptococcus pneumoniae [3] it was 4 µg/mL (≈ 4.15 µM).

In the case of `CC[C@H]1OC(=O)[C@H](C)[C@@H](O[C@H]2C[C@@](C)(OC)[C@@H](O)[C@H](C)O2)[C@H](C)[C@@H](O[C@@H]2O[C@H](C)C[C@H](N(C)C)[C@H]2O)[C@](C)(O)C[C@@H](C)C(=O)[C@H](C)[C@@H](O)[C@]1(C)O` [ERYTHROMYCIN], the MIC was 0.06 µg/mL (≈ 0.0818 µM) with Streptococcus pneumoniae [1]; 8 µg/mL (≈ 10.9 µM) against Haemophilus influenzae; 4 µg/mL (≈ 5.45 µM) against Streptococcus pneumoniae [2]; 0.5 µg/mL (≈ 0.681 µM) against Staphylococcus aureus; more than 16 µg/mL with Streptococcus pneumoniae [3].

Regarding `CC[C@H]1OC(=O)[C@H](C)C(=O)[C@H](C)[C@@H](O[C@@H]2O[C@H](C)C[C@H](N(C)C)[C@H]2O)[C@](C)(OC)C[C@@H](C)C(=O)[C@H](C)[C@H]2N(CCCCn3cnc(-c4cccnc4)c3)C(=O)O[C@]12C` [TELITHROMYCIN], the MIC is 0.03 µg/mL (≈ 0.0369 µM) in the assay with Streptococcus pneumoniae [1]; 2 µg/mL (≈ 2.46 µM) in the assay with Haemophilus influenzae; 0.25 µg/mL (≈ 0.308 µM) against Streptococcus pneumoniae [2]; 0.25 µg/mL (≈ 0.308 µM) in the assay on Staphylococcus aureus; 0.06 µg/mL (≈ 0.0739 µM) against Streptococcus pneumoniae [3].
